# Test results published in patent publication US7012129B2, “Antiviral composition comprising glycine amide” (priority 2001, dated 2006).
# Peptide text beside a SMILES is read from it.
# Key:
# HIV-1 [1] = conditions: for effect on HIV replication/infectivity (in words): 100 μM concentration; for p24 ng/ml Mean: 100 μM peptide, culture supernatant, day 7 after infection (FIG. 1), infected control 53.31
# Source text: The tripeptide amides made according to EXAMPLE 1 were used in several HIV-1 infectivity assays to determine the ability of said tripeptide amides to inhibit HIV replication and/or infection. The efficiency of HIV-1 replication and status of HIV-1 infection was monitored by the concentration of p24 protein in the cell supernatant.
# In a first set of experiments, approximately 3×10^5 H9 cells were infected with HIV-1 (e.g., 50–100 TCID50 per 300,000 H9 cells) to test the inhibitory effect of various tripeptide amides provided at 100 μM concentration.
# By one approach, virus was added at 50–100 TCID50 to 3×10^5 H9 cells in a total volume of 500 μl containing RPMI 1640 medium supplemented with 10% (v/v) heat-inactivated fetal bovine serum (FBS), L-Glutamine, and Bensylpenicillin and Streptomycin (PS) (approximately 0.5 ml added to 500 ml RPMI medium), all available through LifeTechnology/GIBCO laboratories. This media is referred to as “RPMI++ media.” Cell counting was accomplished using 0.2% tryphanblue dissolved in PBS and a Bürker cell counter chamber. The virus and cells were then mixed gently on a vortex and were incubated at 37° C. for one hour and thirty minutes. Next, the cells were pelleted at 1200 rpm for 7 minutes and the supernatant was discarded.
# (§1) The cells were then resuspended in RPMI++ at a concentration of 3×10^5 cells per ml. […] Cells were then incubated at 37° C. in a 5% CO2 enriched incubator. The medium was changed on day 4, 7, and finally day 11. The infection was stopped on day 11 or 14. During each media change, approximately 0.8 ml was replaced and 0.8 ml of the supernatant was transferred to a sterile 96 well plate and stored at −80° C. for p24 analysis.
# (§2) The presence of p24 in the supernatants was determined using a p24 antigen detection method. […] By one approach, a capture-assay is employed, wherein the viral antigen is captured on a 96-well plate coated with a polyclonal anti-p24 rabbit serum (Swedish Institute for infectious disease control). The captured antigen is then detected with peroxidase conjugated anti-p24 mouse monoclonal antibodies. The conjugate is a pool of three different monoclonal antibodies. The analysis was performed with cell free supernatant directly from the cell culture or with supernatant that had been stored at −20° C. to −80° C.
# Accordingly, a p24 standard was diluted (e.g., 4, 2, 1, 0.5, 0.25, 0.125, 0.0625 ng/ml) in RPMI++ media. […] In some cases, serial dilutions of the supernatants were made so as to more accurately detect p24 concentration. Coated plates (e.g., plates coated with a polyclonal anti-p24 rabbit serum) were washed 4 times with approximately 300–350 μl/well washing buffer (PBS with 0.05% Tween-20). The plates were inverted and tapped against absorbant paper after each wash to discard the superfluous washing buffer. Approximately, 100 μl of each sample and standard was added to individual wells on the plate. The plates were covered with tape and incubated at 37° C. for 2 hours or in the dark at room temperature over night.
# Next, the plates were washed again as above. Approximately 100 μl/well of conjugate diluted in conjugate buffer (PBS with 0.5% Triton X-100, 0.5% Bovine Serum Albumin, 0.05% Tween-20, and 10% Fetal Bovine Serum). The plates were then covered with tape and incubated at 37° C. for 2 to 4 hours.
# HIV [2] = assay: Electron microscopy of HIV budding in treated HUT78 cells (nodular structures); format: cell-based
# HIV-1 [3] = conditions: for Mean p24: CEM cells, 100 μM, culture supernatant, day 11 after infection (FIG. 2), inf. control 1.62; for inhibition of HIV-1 replication (in words): infected CEM cells, 100 μM concentration
# Procedure: By one approach, virus was added at 50–100 TCID50 to 3×10^5 H9 cells in a total volume of 500 μl containing RPMI 1640 medium supplemented with 10% (v/v) heat-inactivated fetal bovine serum (FBS), L-Glutamine, and Bensylpenicillin and Streptomycin (PS) (approximately 0.5 ml added to 500 ml RPMI medium), all available through LifeTechnology/GIBCO laboratories. […] The virus and cells were then mixed gently on a vortex and were incubated at 37° C. for one hour and thirty minutes. Next, the cells were pelleted at 1200 rpm for 7 minutes and the supernatant was discarded.
# as §1, §2
# Accordingly, a p24 standard was diluted (e.g., 4, 2, 1, 0.5, 0.25, 0.125, 0.0625 ng/ml) in RPMI++ media. The standard, recombinant HIV-1 LAI gag p24, was purchased from NIBSC, Centralized Facility for AIDS Reagent, MRC. (order no EVA620). In some cases, serial dilutions of the supernatants were made so as to more accurately detect p24 concentration. Coated plates (e.g., plates coated with a polyclonal anti-p24 rabbit serum) were washed 4 times with approximately 300–350 μl/well washing buffer (PBS with 0.05% Tween-20). The plates were inverted and tapped against absorbant paper after each wash to discard the superfluous washing buffer. Approximately, 100 μl of each sample and standard was added to individual wells on the plate. The plates were covered with tape and incubated at 37° C. for 2 hours or in the dark at room temperature over night.
# Next, the plates were washed again as above. Approximately 100 μl/well of conjugate diluted in conjugate buffer (PBS with 0.5% Triton X-100, 0.5% Bovine Serum Albumin, 0.05% Tween-20, and 10% Fetal Bovine Serum). The plates were then covered with tape and incubated at 37° C. for 2 to 4 hours. The OPD substrate (ABBOTT) was then prepared by adding 1 tablet of OPD per 5 ml OPD substrate solution (12.8 mg OPD (o-phenylenediamine. 2 HCl) per tablet and 1 tablet was dissolved in 5 ml citrate-phosphate buffer containing 0.02% hydrogen peroxidase). The solution was kept in the dark until it was used. The conjugate bound plates were then washed as above and, after the final wash, 100 μof OPD substrate solution/well was added and the plates were incubated at room temperature for 30 minutes.
# HIV [4] = assay: Electron microscopy of HIV budding in treated ACH-2 cells (nodular structures); format: cell-based
# [5] = HIV infected H9 cells, 100 μM, day 11 (FIG. 3)
# [6] = ACH-2 cells, electron microscopy
Compound,effect on HIV replication/infectivity (in words) (HIV-1 [1]; H9 cells),p24 ng/ml Mean (HIV-1 [1]; H9 cells) [ng/mL],Mean p24 (HIV-1 [3]) [ng/mL],inhibition of HIV-1 replication (in words) (HIV-1 [3]),other results
"CC[C@H](C)[C@H](NC(=O)[C@H](C)N)C(=O)NCC(N)=O [AIG-NH2, alanyl-isoleucyl-glycine-amide] (H-Ala-Ile-Gly-NH2)",almost completely inhibited HIV replication,10.69,–,–,–
"CC(C)C[C@H](NC(=O)[C@H](C)N)C(=O)NCC(N)=O [ALG-NH2, alanyl-leucyl-glycine-amide] (H-Ala-Leu-Gly-NH2)",–,–,–,–,dense nodular structure attached to the outer part of viral envelope (HIV [2]): 8%; treated cells carrying virus particles that had nodular structures on outer membrane (HIV [2]): 56%
"C[C@H](N)C(=O)N1CCC[C@H]1C(=O)NCC(N)=O [APG-NH2, alanyl-prolyl-glycine-amide] (H-Ala-Pro-Gly-NH2)",almost completely inhibited HIV replication,1.13,0.01,inhibit HIV-1 replication,–
"NCC(N)=O [G-NH2, glycine amide]",–,–,0.04,inhibited HIV-1 replication,"inhibition of HIV replication at 20 μM (in words) (HIV-1 [1]; H9 cells, 20 μM, p24 at day 11 after infection (FIG. 4)): almost completely inhibited HIV replication; dose dependence of inhibition of HIV replication (in words) (HIV-1 [1]; H9 cells, 0.5–20 μM, p24 at day 11 after infection (FIG. 4)): inhibits HIV replication in a dose dependent manner; concentration at which significant inhibition of HIV replication was achieved (HIV-1 [1]; H9 cells, p24 at day 11 after infection, 0.5–20 μM tested (FIG. 4)): less than 5 μM; amount of p24 in culture supernatant compared with controls (in words) (HIV-1 [1]; [5]): almost identical to that found in the non-infected control"
"NCC(=O)O [G-OH, glycine]",–,–,1.73,an inhibition of HIV-1 replication was not observed,p24 present in the culture supernatant (HIV-1 [1]; [5]): approximately 65 ng/ml
"NCC(=O)N[C@@H](Cc1ccccc1)C(=O)NCC(N)=O [GFG-NH2, glycyl-phenylalanyl-glycine-amide] (H-Gly-Phe-Gly-NH2)",almost completely inhibited HIV replication,0.45,0.08,inhibit HIV-1 replication,–
"NCC(=O)NCC(=O)NCC(N)=O [GGG-NH2, glycyl-glycyl-glycine-amide, reference compound] (H-Gly-Gly-Gly-NH2)",little affect on HIV infectivity,61.82,–,–,–
"CC(C)C[C@H](NC(=O)CN)C(=O)NCC(N)=O [GLG-NH2, glycyl-leucyl-glycine-amide] (H-Gly-Leu-Gly-NH2)",almost completely inhibited HIV replication,2.71,–,–,–
"NCC(=O)N1CCC[C@H]1C(=O)NCC(N)=O [GPG-NH2, glycyl-prolyl-glycine-amide, reference compound] (H-Gly-Pro-Gly-NH2)",almost completely inhibited HIV replication,0.42,0.07,–,"nodules in cells not stimulated with PMA to produce virus (in words) (HIV [4]; ACH-2 cells, 1 mM, no PMA stimulation): did not show such nodules; dense nodular structure attached to the outer part of viral envelope (HIV [4]; [6]): 2%; treated cells carrying virus particles that had nodular structures on outer membrane (HIV [4]; [6]): 74%; nodules upon combined treatment with protease inhibitor ritonavir (in words) (HIV [4]; PMA stimulated ACH-2 cells, GPG-NH2 1 mM plus ritonavir 2 μM): gave no such nodules; dense nodular structure attached to the outer part of viral envelope (HIV [2]): 4%; treated cells carrying virus particles that had nodular structures on outer membrane (HIV [2]): 65%"
"NCC(=O)N[C@@H](Cc1c[nH]c2ccccc12)C(=O)NCC(N)=O [GWG-NH2, glycyl-tryptophanyl-glycine-amide] (H-Gly-Trp-Gly-NH2)",almost completely inhibited HIV replication,0.61,0.15,inhibit HIV-1 replication,–
"NCC(=O)N[C@@H](Cc1ccc(O)cc1)C(=O)NCC(N)=O [GYG-NH2, glycyl-tyrosyl-glycine-amide] (H-Gly-Tyr-Gly-NH2)",–,–,0.02,inhibited HIV-1 replication,–
"CC(C)C[C@H](N)C(=O)N[C@@H](CC(N)=O)C(=O)N[C@@H](Cc1ccccc1)C(N)=O [LNF-NH2, leucyl-asparagyl-phenylalanine-amide, reference compound] (H-Leu-Asn-Phe-NH2)",–,–,1.45,–,–
fenylalanyl-leucyl-glycine-amide [FLG-NH2],almost completely inhibited HIV replication,0.25,0.00,inhibit HIV-1 replication,–
"prolyl-glycine-arginine-amide [PGR-NH2, reference compound]",little affect on HIV infectivity,55.93,–,–,–
α-tertiary-butylglycine-prolyl-glycine-amide [tbutGPG-NH2],almost completely inhibited HIV replication,0.44,-0.01,inhibit HIV-1 replication,–
